Assay results from US20130337579A1, “Methods for Determining Protein Ligand Binding” (UNIVERSITY OF MARYLAND, COLLEGE PARK, priority 2010, published 2013).

Columns and labels:
[1] = target: T1, P. aeruginosa Alg44PilZ (His-MBP-Alg44PilZ) (Pseudomonas aeruginosa, UniProt Q9HY69); assay: biochemical; assay type: binding; conditions: 20 μM purified protein; 500 nM 14C-cAMP, 4 nM 32P-ATP or 4 nM 32P-cdiGMP
T1 construct: His-MBP-Alg44PilZ was varied from 100 μM to 6 nM; made in house; host or cells: E. coli BL21(DE3)
T1 sequence (Q9HY69 16-116): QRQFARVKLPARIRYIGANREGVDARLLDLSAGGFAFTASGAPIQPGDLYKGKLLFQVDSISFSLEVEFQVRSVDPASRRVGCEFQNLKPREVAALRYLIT
Source text: DRaCALA exploits the ability of nitrocellulose membranes to preferentially sequester proteins over small molecule ligands. When a mixture of protein and radiolabeled ligand is spotted onto a dry nitrocellulose membrane, protein and bound ligand are immobilized at the site of contact while free ligand is mobilized by capillary action with the liquid phase (FIG. 1A). DRaCALA is a rapid assay, as the capillary action can be completed in less than 5 seconds. […] Because capillary action distributes the unbound ligand throughout the mobile phase, the calculation for the fraction bound (FB) can be corrected for this background (see below for edge effects at the solvent front and annulation of the protein). Therefore, FB is defined by the equation in FIG. 1B, where Iinner is the intensity of signal in the area with protein (inner circle) and Itotal is the total signal of the entire sample (outer circle). The Iinner signal consists of both ligand bound to protein and unbound ligand that has not mobilized beyond the area of the inner circle, which we define as Ibackground. Ibackground can be calculated by subtracting the signal intensity of the Iinner from the total ligand Itotal and adjusting for the relative areas of the inner (Ainner) and outer circles (Atotal) (FIG. 1B).
(§1) Radiolabeled ligands were incubated with each of the proteins and the mixtures were spotted on nitrocellulose. After spreading by capillary action, membranes were dried and quantitated by phosphorimager. […] The specificity of Alg44PilZ binding to cdiGMP was further tested by competition with excess unlabeled nucleotides (400-fold molar excess relative to the Alg44PilZ protein).
Kd can be measured by altering either the protein or ligand concentrations in titration experiments; since DRaCALA detects only the ligand mobility, ligand concentrations can be always held constant. […] Since the assay is completed in less than 5 seconds, DRaCALA can also be used to determine the koff for those protein-ligand complexes with slower off rates. koff was determined for cdiGMP and Alg44PilZ by spotting at the indicated time points after the addition of 1 mM unlabeled cdiGMP to a pre-incubated mixture of Alg44PilZ and ^32P-cdiGMP (FIG. 3C). […] Both edge and annulation effects are explained in FIG. 8. The edge effect is due to evaporation of the solvent during the time of the experiment, and is dependent on the humidity of the local environment around the nitrocellulose support. The evaporation results in a smaller total area (Atotal observed in FIG. 8A) and leads to an increased value in the calculated Ibackground. As a secondary correction for the edge effect, the fraction bound determined for spotted ligand in the absence of protein can be subtracted from all samples in parallel (FIG. 8B).

HisMBP-Alg44PilZ = target: T2, HisMBP-Alg44PilZ (Pseudomonas aeruginosa, UniProt Q9HY69); assay: DRaCALA competition of cold nucleotides with 32P-cdiGMP binding to HisMBP-Alg44PilZ; design: species or system P. aeruginosa; conditions: 1 mM cold nucleotide (400-fold molar excess over protein), 4 nM 32P-cdiGMP
T2 construct: His-MBP-Alg44PilZ was varied from 100 μM to 6 nM; made in house; host or cells: E. coli BL21(DE3)
T2 sequence (Q9HY69 16-116): as above
Experimental: FIG. 2. Detection of specific protein-ligand interactions by DRaCALA. (A) DRaCALA images of interactions between purified proteins (20 μM) incubated with 500 nM ^14C-cAMP, 4 nM ^32P-ATP, or 4 nM ^32P-cdiGMP. Protein-ligand mixtures were spotted on nitrocellulose and allowed to dry prior to imaging using a Fuji FLA7100 phosphorimager. Cognate protein-nucleotide combinations are indicated by arrowheads. MBP was used as a negative control. (B) DRaCALA images of competition assays assessing the ability of 1 mM of the indicated cold nucleotides to compete with binding interactions between 4 nM ^32P-cdiGMP and 2.5 μM HisMBP-Alg44PilZ. (C) Graph of fraction bound for each sample in […] with averages indicated by a horizontal bar. NC indicates no competitor. P values were determined by a Student's t-test for significant differences when compared to the no-competitor (NC) control for three independent experiments. For total intensity of each DRaCALA spot in FIGS. 2A and 2B, see Tables 1 and 2, respectively.
Radiolabeled ligands were incubated with each of the proteins and the mixtures were spotted on nitrocellulose. After spreading by capillary action, membranes were dried and quantitated by phosphorimager. […] Each of the radiolabel signals from MBP mixtures was distributed by capillary action (FIG. 2A). […] The specificity of Alg44PilZ binding to cdiGMP was further tested by competition with excess unlabeled nucleotides (400-fold molar excess relative to the Alg44PilZ protein). Alg44PilZ binding to ^32P-cdiGMP was abolished by cdiGMP, but not by cGMP, GMP, GDP, GTP, ATP, CTP or UTP as was previously described (FIG. 2B). The FB for cdiGMP was 0.31±0.07, which was reversed by competition with unlabeled cdiGMP to the background level of 0.04±0.01 (FIG. 2C).
(§2) Protein or whole cell lysates in 1× cdiGMP binding buffer (20 μl) was mixed with 4 nM of radiolabeled nucleotide and allowed to incubate for 10 minutes at room temperature. Radiolabeled nucleotide was competed away by cold nucleotides in concentrations and for times indicated. Purified proteins were tested in technical replicates. Whole cell lysates in FIG. 4 and FIG. 12 were tested in biological triplicates. Whole cell lysates in FIG. 5 were tested in technical replicates. These mixtures were pipetted (2.5-5 μl) onto dry, untreated nitrocellulose (GE Healthcare) in triplicate and allowed to dry completely before quantification. An FLA7100 Fujifilm Life Science Phosphorimager was used to detect luminescence following a 5-minute exposure of blotted nitrocellulose to phosphorimager film. Data was quantified using Fujifilm Multi Gauge software v3.0.

E. coli CRP = target: T3, E. coli CRP (Escherichia coli, UniProt P0ACJ8); assay: DRaCALA binding of radiolabeled nucleotides to purified CRP; conditions: 20 μM purified protein; 500 nM 14C-cAMP, 4 nM 32P-ATP or 4 nM 32P-cdiGMP
T3 construct: His; made in house
T3 sequence (P0ACJ8 whole entry): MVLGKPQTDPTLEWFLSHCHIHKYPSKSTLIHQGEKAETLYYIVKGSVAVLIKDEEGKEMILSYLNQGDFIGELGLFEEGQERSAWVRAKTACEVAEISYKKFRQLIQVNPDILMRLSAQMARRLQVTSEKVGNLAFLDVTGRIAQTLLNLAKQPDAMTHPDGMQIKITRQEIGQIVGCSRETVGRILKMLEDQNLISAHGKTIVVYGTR
Experimental: as §1, §2

E. coli NtrB = E. coli NtrB (Escherichia coli, UniProt P0AFB5); assay: DRaCALA binding of radiolabeled nucleotides to purified NtrB; conditions: 20 μM purified protein; 500 nM 14C-cAMP, 4 nM 32P-ATP or 4 nM 32P-cdiGMP
Sequence of E. coli NtrB (P0AFB5 whole entry): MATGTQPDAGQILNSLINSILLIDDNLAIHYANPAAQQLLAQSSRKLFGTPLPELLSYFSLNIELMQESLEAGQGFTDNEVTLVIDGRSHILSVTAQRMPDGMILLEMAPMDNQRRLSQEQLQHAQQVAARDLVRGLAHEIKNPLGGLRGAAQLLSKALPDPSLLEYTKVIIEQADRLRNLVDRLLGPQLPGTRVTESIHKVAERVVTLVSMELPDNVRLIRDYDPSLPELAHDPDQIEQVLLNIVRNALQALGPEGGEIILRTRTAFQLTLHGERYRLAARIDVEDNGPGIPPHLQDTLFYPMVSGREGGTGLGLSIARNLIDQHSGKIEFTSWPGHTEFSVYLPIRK
Experimental: as §1, §2

| SMILES | binding to Alg44PilZ (sequestration of radiolabel signal) [1] | Alg44PilZ binding to 32P-cdiGMP abolished by unlabeled nucleotide (HisMBP-Alg44PilZ) | binding to CRP (sequestration of radiolabel signal) (E. coli CRP) | binding to NtrB (sequestration of radiolabel signal) (E. coli NtrB) |
| --- | --- | --- | --- | --- |
| Nc1ncnc2c1ncn2[C@@H]1O[C@H](COP(=O)(O)OP(=O)(O)OP(=O)(O)O)[C@@H](O)[C@H]1O [ATP] | not | not | did not bind | bound |
| Nc1ccn([C@@H]2O[C@H](COP(=O)(O)OP(=O)(O)OP(=O)(O)O)[C@@H](O)[C@H]2O)c(=O)n1 [CTP] | – | not | – | – |
| Nc1nc2c(ncn2[C@@H]2O[C@H](COP(=O)(O)OP(=O)(O)O)[C@@H](O)[C@H]2O)c(=O)[nH]1 [GDP] | – | not | – | – |
| Nc1nc2c(ncn2[C@@H]2O[C@H](COP(=O)(O)O)[C@@H](O)[C@H]2O)c(=O)[nH]1 [GMP] | – | not | – | – |
| Nc1nc2c(ncn2[C@@H]2O[C@H](COP(=O)(O)OP(=O)(O)OP(=O)(O)O)[C@@H](O)[C@H]2O)c(=O)[nH]1 [GTP] | – | not | – | – |
| O=c1ccn([C@@H]2O[C@H](COP(=O)(O)OP(=O)(O)OP(=O)(O)O)[C@@H](O)[C@H]2O)c(=O)[nH]1 [UTP] | – | not | – | – |
| Nc1nc2c(ncn2[C@@H]2O[C@@H]3COP(=O)(O)O[C@H]3[C@H]2O)c(=O)[nH]1 [cGMP] | – | not | – | – |
